B1: NGF: growth factor used to differentiate PC12 cells; positive control in the reporter assay (protein, UniProt P25427 122-241, looked up)
Beta-nerve growth factor: SSTHPVFHMGEFSVCDSVSVWVGDKTTATDIKGKEVTVLGEVNINNSVFKQYFFETKCRAPNPVESGCRGIDSKHWNSYCTTTHTFVKALTTDDKQAAWRFIRIDTACVCVLSRKAARRG

Key:
[1] = test system: STAT3 (P-Tyr, Tyr705); experiment: Tyrosine phosphorylation of STAT3 in cortical neurons, immunoblot; assay type: cell-based, rat; details: for inhibition of Aβ-induced tyrosine phosphorylation of STAT3: primary cortical neurons pretreated with inhibitor 2 hrs, then Aβ25-35 for 4 hrs or 24 hrs
Protocol: FIG. 2: Tyrosine phosphorylation of STAT3 is increased in cultured cortical neurons stimulated with Aβ25-35. Primary cortical neurons at 7 DIV were treated with Aβ25-35 (40 μM; H2O served as solvent control) for various times as indicated. Cell lysates were collected and subjected to immunoblotting using P-Tyr STAT3 and total STAT3 antibodies.
(§1) FIG. 4: Tyk2 is required for beta-amyloid peptide-induced tyrosine phosphorylation of STAT3 and neuronal cell death. A. Primary cortical neurons were pretreated with various inhibitors including a potent inhibitor of JAK (JAK inhibitor 1), a JAK2 inhibitor (AG490), a Src tyrosine kinase inhibitor (PP2) and a protein synthesis inhibitor (cycloheximide) for 2 hrs as indicated, followed by treatment with Aβ25-35 peptide for 4 hrs or 24 rs. The cell lysates were immunoblotted with P-Tyr STAT3 and total STAT3 antibody. B. Primary cortical neurons were treated with Aβ25-35. The cell lysates were immunoprecipitated using Tyk2 or JAK2 antibody, and then subjected to Western blot analysis for phospho-tyrosine (P-Tyr) antibody. C. Primary cortical neurons prepared from Tyk2^−/− mice were treated with Aβ25-35. The cell lysates were subjected to immunoblotting using P-Tyr STAT3, total STAT3 and caspase-3 antibody. Quantification analysis of fold change in tyrosine phosphorylated STAT3 and cleaved caspase-3 (bottom panels).
Cultured rat cortical neurons were used as a cell culture model to investigate the role of STAT3 tyrosine phosphorylation in AD. The cortical neurons (7 DIV) were treated with Aβ peptide 25-35.
Since Aβ induced tyrosine phosphorylation of STAT3, the next aim was to identify the upstream regulators of STAT3. Cortical neurons were pre-treated with different inhibitors prior to […] treatment. […] Cortical neurons were treated with Aβ peptide for 1 hr. Endogenous Tyk2 or JAK2 were immunoprecipitated by specific antibodies, and the precipitates were detected by monoclonal phospho-tyrosine antibody, 4G10.
Preparation of Brain Extracts, Cell Extracts, and Western Blots: Four Brain Parts including cortex, hippocampus, cerebellum and striatum were dissected from transgenic mice of various stages (from 2 months to 18 months) and kept on dry ice. Frozen brain tissues were homogenized in homogenizing buffer (25 mM Tris-HCl, pH 7.4, 150 mM NaCl, 1 mM EDTA, pH 7.4, 50 mM NaF) with various protease inhibitors. The supernatant was kept for Western Blotting and the pellets were reextracted using RIPA lysis buffer (150 mM NaCl, 1% (v/v) Nonidet P-40, 0.5% deoxycholic acid, 0.1% (w/v) SDS) containing various protease inhibitors (2 μg/ml aprotinin, 1 mM phenylmethylsulfonyl fluoride, 5 mM benzamidine, 1 mM sodium orthovanadate (NaOV), and 10 μg/ml soybean trypsin inhibitor). Primary cultured cortical neurons or PC12 cells were harvested and lysed in RIPA lysis buffer containing protease inhibitors.

[2] = test system: STAT3; experiment: STAT3 luciferase reporter (pSTAT3-Luc) in PC12 cells; assay type: cell-based; details: PC12 cells differentiated by NGF 4 days, treated 1 day
Protocol: (§2) FIG. 5: Transcription activity of STAT3 in PC12 cells and iNOS RNA in cultured cortical neurons increases upon stimulation with Aβ25-35. A. PC12 cells were transfected with a STAT1 (pGAS-Luc) or STAT3 (pSTAT3-Luc) reporter gene construct together with an internal control plasmid (β-galactosidase-pCMV). The cells were differentiated by NGF for 4 days, and were then treated with Aβ25-35 or NGF (positive control) for 1 day. Luciferase activity was measured and normalized against the β-galactosidase activity in the samples. Results were normalized with β-galactosidase activity; mean±S.E., n=3; *, p<0.05. B. Primary cortical neurons at 7 DIV were pretreated with STAT3 inhibitor or JAK inhibitor I for 30 minutes, followed by Aβ25-35 (40 μM) treatment for 6 hours. Total RNA was collected and subjected to reverse transcription. The cDNA was then subjected to real-time PCR analysis using iNOS primers.
(§3) To further characterize if Aβ peptide effects STAT3 transcriptional activity, PC12 cells were transfected with a luciferase construct linked to the STAT3-response enhancer element (pSTAT3-Luc). The luciferase construct linked to the STAT1-response enhancer element (pGAS-Luc) was used as a control.

[3] = test system: iNOS gene expression; experiment: iNOS mRNA in primary cortical neurons, real-time PCR; assay type: cell-based
Protocol: as §2
Primary cortical neurons were treated with Aβ peptide for 6 hr. […]
Quantitative RT-PCR: Total RNA was isolated from Aβ-treated cortical neurons using RNeasy mini kit (Qiagen) according to the manufacturer's instruction. […] Quantitative PCR was performed with specific primers targeting specific genes using Bio-Rad MX3000P real-time PCR system.

[4] = test system: STAT1; experiment: STAT1 luciferase reporter (pGAS-Luc) in PC12 cells; assay type: cell-based; details: PC12 cells differentiated by NGF 4 days, treated 1 day
Protocol: as §2, §3

[5] = test system: Tyk2; experiment: Tyk2 tyrosine phosphorylation in cortical neurons, immunoprecipitation and phospho-tyrosine blot; assay type: cell-based; details: cortical neurons treated 1 hr; IP Tyk2, 4G10 blot
Source text: as §1
Since Aβ induced tyrosine phosphorylation of STAT3, the next aim was to identify the upstream regulators of STAT3. Cortical neurons were pre-treated with different inhibitors prior to iv treatment. […] Endogenous Tyk2 or JAK2 were immunoprecipitated by specific antibodies, and the precipitates were detected by monoclonal phospho-tyrosine antibody, 4G10.

Molecule | inhibition of Aβ-induced tyrosine phosphorylation of STAT3 [1] | STAT3 promoter activity (pSTAT3-Luc luciferase) [2] | STAT1 promoter activity (pGAS-Luc luciferase) [4] | also measured
N#C/C(=C/c1ccc(O)c(O)c1)C(=O)NCc1ccccc1 [AG490] | did not exhibit similar inhibitory effects | – | – | –
Aβ peptide 25-35: β-amyloid peptide fragment 25-35 used to stimulate neurons and PC12 cells (GSNKGAIIGLM; Amyloid-beta protein 42; UniProt P05067 696-706, looked up, fragment) | – | only induced the STAT3 promoter activity | only induced the STAT3 promoter activity | iNOS gene expression level after treatment ([3]; primary cortical neurons, 6 hr treatment): increased; tyrosine phosphorylation of STAT3 induced by treatment ([1]; cortical neurons 7 DIV, Aβ25-35 40 μM, up to 4 hrs): significant increase in tyrosine phosphorylation of STAT3; Tyk2 tyrosine phosphorylation after treatment [5]: could be detected
CC(C)(C)c1nc2c3cc[nH]c(=O)c3c3cc(F)ccc3c2[nH]1 [JAK inhibitor 1] | completely inhibited | – | – | block of Aβ-induced increase in iNOS gene expression ([3]; primary cortical neurons 7 DIV, 30 minutes pretreatment, then Aβ25-35 40 μM for 6 hours): blocked
CC(C)(C)n1nc(-c2ccc(Cl)cc2)c2c(N)ncnc21 [PP2] | neither the Src kinase inhibitor PP2 nor the protein synthesis inhibitor cycloheximide affected | – | – | –
C[C@@H]1C[C@@H]([C@H](O)CC2CC(=O)NC(=O)C2)C(=O)[C@@H](C)C1 [cycloheximide] | neither the Src kinase inhibitor PP2 nor the protein synthesis inhibitor cycloheximide affected | – | – | –
B1 | – | induced the promoter activity of both STAT3 and STAT1 | induced the promoter activity of both STAT3 and STAT1 | –

Source: patent publication US9134327B2, “STAT3 and TYK2 as drug targets for neurodegenerative diseases” (Biotechnology Research Corporation Limited, priority 2008, dated 2015)
